Assay [1] concerns 293T cells. Description: Clonogenic proliferation (colony formation) assay, 293T. Type of assay: cell-based, human. Conditions: 10 to 14 days.
Procedure: (§6) For clonogenic proliferation assay, cells were plated in triplicate at 1×10^3 cells in 6-well plates. For analysis of the effects of inhibitors on cell proliferation, fresh medium with inhibitor was replaced every 48 hours. After 10 to 14 days of treatment, cultures were fixed and stained with 1% crystal violet (in ethanol) and photographed.
In assay [2] the test system is TEAD transcriptional activity. Kind of assay: TEAD luciferase reporter assay. Conditions: for TEAD reporter activity: 293T and H2373 cells, 24 hours, comparison of TNKS and PARP1/2 inhibitors. Type of assay: cell-based, human. The method, then:
A set of in-house kinase and commercially available inhibitors was used to screen for effects on the TEAD luciferase reporter. 293 cells expressing the TEAD reporter along with renilla-lucifease (20:1 ratio) were plated at low density (2×10^4 cells) in 24 well plates in triplicate. 24 hours after plating, the cells were treated with 10 μM of each compound or DMSO as control. 24 hours later, dual-luciferase reporter assay was performed according to the manufacturer's protocol (Promega, Madison Wis., USA), using TD-20e Luminometer (Turner Biosystem, Promega, Madison Wis., USA). TEAD reporter activity was normalized to renilla luciferase. The Log 2 values were calculated for each compound using the DMSO sample as control.
On the technique in general: Reporter assays use an easily measured gene product as a stand-in for the process of interest.

The subject of assay [3] is angiomotin proteins (AMOT, AMOTL2). Description: Western blot of angiomotin protein levels. Type of assay: cell-based, human. As to conditions: 10 μM; for angiomotin protein levels (AMOT in 293T, AMOTL2 in H2373): 293T and H2373 cells. The method, then: (§1) Cells were harvested in EBC lysis buffer (50 mM Tris-HCl at pH 7.5, 150 mM NaCl, 5 mM EDTA, 0.5% NP-40), supplemented with Complete Mini Protease and Phosphatase Inhibitor Cocktails (Roche, Indianapolis, Ind., USA). Cells were lysed and 30-80 μg protein subjected to SDS-PAGE followed by transfer onto an Immobilon-FL PVDF membrane (Millipore, Billerica, Mass., USA) and incubation with the indicated antibodies. Detection was carried out with an Odyssey Infrared Imaging System (LI-COR Biosciences, Lincoln, Nebr., USA) with IR dye-tagged secondary antibodies (LI-COR Biosciences). The following antibodies were utilized: mouse anti-YAP, goat anti-NF2, mouse anti-AMOT, goat anti-AMOTL1, goat anti-AMOTL2 (Santa Cruz, Dallas, Tex., USA), mouse anti-FlagM2 (Sigma, Saint Louis, Mo., USA), rabbit anti-LATS1, rabbit anti-LATS2, rabbit anti-p-YAP (Cell Signaling, Danvers, Mass., USA), TNKS1/2 (Santa Cruz, Dallas, Tex., USA), mouse anti-TEAD4, mouse anti-RAS (Thermo Scientific, Waltham, Mass., USA), mouse anti-α-Tubulin, mouse anti-β-actin (Sigma, Saint Louis, Mo., USA).
For orientation: In western blotting, separated proteins are transferred to a membrane and probed.

The test system of assay [4] is AMOT, AMOTL1, AMOTL2 mRNA. Description: qRT-PCR of angiomotin mRNA levels. Type of assay: cell-based, human. As to conditions: 293T and H2373 cells, 10 μM, 24 hours. As for the experimental part:
(§2) Total RNA was extracted from cells using the RNeasy Mini kit (Qiagen, Hilden, Germany) following the manufacturer's instructions. 1 μg of total RNA was used for cDNA synthesis using Superscript II (Invitrogen, Carlsbad, Calif., USA) according to the manufacturer's instructions.
(§3) Quantitative RT-PCR was performed using the ViiA™ 7 Real-Time PCR System (Life Technologies, Carlsbad, Calif., USA) using the FastStart SYBR Green Master mix (Roche, Indianapolis, Ind., USA). Primers were as follows: […]
(§4) PCR was performed in 384 well plates in 10 μl total volumes under the following conditions: 95° C. for 15 min, followed by 40 cycles of 94° C. for 15 sec, 61° C. for 30 sec, and 72° C. for 30 sec. Specificity was verified by a dissociation curve. Results were analyzed with ViiA7 RUO software (Life Technologies, Carlsbad, Calif., USA). Gene expression levels were normalized to GAPDH expression.
Background: Real-time PCR tracks product formation cycle by cycle.

Assay [5] deals with TEAD target genes (CTGF, CYR61, ANKRD1). Kind of assay: Quantitative RT-PCR of TEAD target genes. Type of assay: cell-based, human. As to conditions: for TEAD target gene expression (CTGF, CYR61, ANKRD1 mRNA): 293T and H2373 cells, 10 μM. The method, then: as §2, §3, §4
The subject of assay [6] is H2373 cells. Kind of assay: Clonogenic proliferation (colony formation) assay, H2373. Type of assay: cell-based, human. Conditions: for proliferation / colony formation: H2373 cells (NF2 mutant), 10 to 14 days.
Procedure: as §6
For assay [7], the system named is Hippo pathway mutant tumor cells and Hippo pathway wild-type cells. Description: Cell cycle profile by Propidium Iodide staining. Type of assay: cell-based, human. Conditions: 10 μM, 72 hours. From the text:
Statistical analysis of the cell cycle profile is shown below. Error bars indicate SD of experiments performed in triplicate.

Assay [8] relates to YAP. Kind of assay: Immunofluorescence of YAP sub-cellular localization. Type of assay: cell-based, human. As to conditions: 24 hours. The method, then: Cells cultured on glass coverslips were fixed for 10 min with 4% paraformaldehyde in 1×PBS at 37° C. and permeabilized for 3 min with 0.02% Triton-X100, following exposure for 1 hour to a blocking solution (PBS containing 5% BSA). Coverslips were then incubated at room temperature with the following primary antibodies: anti-YAP (Santa Cruz, Dallas, Tex., USA) and anti-Flag M2 (Sigma, Saint Louis, Mo., USA). Corresponding secondary antibodies were Alexa fluor conjugated (Molecular Probes, Eugene, Oreg., USA). 2 μg/ml DAPI was used as a counter stain and was used to label nuclei. Imaging was performed using an Axioplan 2 Imaging System (Zeiss, Oberkochen, Germany).

Assay [9] concerns YAP overexpressing MCF10A cells. Conditions: cited from earlier work.
For assay [10], the system named is angiomotin. As to conditions: reported by Wang et al. 2015; cited from earlier work.
Assay [11] relates to PTEN. Description: Western blot of PTEN levels. Type of assay: cell-based, human. As to conditions: H2052 and H2373 cells, 10 μM, time course. As for the experimental part:
as §1

Assay [12] relates to MCF10A cells stably expressing HRAS-V12. Kind of assay: Anchorage-independent growth assay, HRAS-V12-transformed MCF10A. Conditions: MCF10A stably expressing HRAS-V12, 3 weeks. Type of assay: cell-based, human. As for the experimental part: (§5) Cells were fed every 4 days for 3 weeks by adding 0.2 mL of growth medium containing either 0.1% DMSO as a control or compounds in 0.1% DMSO at the concentrations indicated.

Assay [13] has as its system YAP S127 phosphorylation. Description: Western blot of YAP S127 phosphorylation. Type of assay: cell-based, human. As to conditions: H2373 cells, varying XAV939 concentrations, 24 hours. The method, then: as §1
In assay [14] the test system is AMOT-YAP protein complex. Kind of assay: Co-immunoprecipitation of endogenous AMOT and YAP. Type of assay: cell-based, human. As to conditions: 293T cells, 10 μM, 24 hours.
Procedure: Cells were harvested in RIPA lysis buffer (50 mM Tris-Cl; pH 8.0, 5 mM EDTA, 1% Triton X-100, 0.1% sodium deoxycholate, 0.1% SDS, 150 mM NaCl) supplemented with Complete Mini Protease and Phosphatase Inhibitor Cocktails. 800 μg proteins were incubated with 10 μg of antibody overnight at 4° C. Anti-mouse or anti-rabbit IgG (Santa Cruz, Dallas, Tex., USA) was used as a negative control. Immunoprecipitated complexes were captured by 2 h incubation at 4° C. with Dynabeads Protein A/G B (Invitrogen, Carlsbad, Calif., USA), followed by three washes in lysis buffer. Immunoprecipitated complexes were eluted by boiling for 5 min with Laemmli buffer (150 mM Tris-Cl; pH 6.8, 20% glycerol, 4% SDS, 0.002% bromophenol blue, 2% 2-mercaptoethanol) with 10% of the total lysates run on the same gel for comparative immunoblot analysis.
The test system of assay [15] is liver tumor growth induced by YAP overexpression or NF2 inactivation. Conditions: mice, tumors induced by YAP overexpression or NF2 inactivation; cited from earlier work.
Assay [16] deals with MCF10A cells stably expressing YAP-WT or YAP-S127A. Description: Anchorage-independent growth assay, YAP-transformed MCF10A. Type of assay: cell-based, human. Conditions: 3 weeks. The method, then: as §5

The values that follow come from patent publication US11246868B2, “Treatment of hippo pathway mutant tumors and methods of identifying subjects as candidates for treatment” (ICAHN SCHOOL OF MEDICINE AT MOUNT SINAI, priority 2016, dated 2022).

“Also recorded” adds a separate entry of the source.

For the compound `C[C@]1(c2nc3c(C(N)=O)cccc3[nH]2)CCCN1` [ABT-888], the “proliferation / colony formation” value in [1] and in assay [6] was “did not affect” each time. In addition, in assay [2], the TEAD reporter activity entry is reported as “did not affect”. Besides, the “angiomotin protein levels (AMOT in 293T, AMOTL2 in H2373)” value (“angiomotin protein levels” below) in [3] (24 hours) was “lacked any effect”. For the same compound, the “AMOT, AMOTL1, AMOTL2 mRNA levels” value in [4] is reported as “lacked any effect”. The “TEAD target gene expression (CTGF, CYR61, ANKRD1 mRNA)” value (“TEAD target gene expression” below) in [5] (24 hours) is “did not affect”.
Take `O=C(Nc1cccc2cccnc12)c1ccc(N2C(=O)[C@@H]3[C@H](C2=O)[C@@H]2C=C[C@H]3C2)cc1` [IWR1]: the TEAD reporter activity entry in [2] is listed as “able to inhibit”. For the same compound, the “angiomotin protein levels” value in [3] (24 hours) is “strikingly increased”. In addition, in assay [4], the “AMOT, AMOTL1, AMOTL2 mRNA levels” value is given as “did not markedly affect”. Further, the “TEAD target gene expression” value in assay [5] (24 hours) is “able to inhibit”. The “proliferation / colony formation” value in [6] was “significantly decreased”.
As for `CC(C)c1ccc(-c2cc(=O)c3ccccc3o2)cc1` [MN-64], in [2], the TEAD reporter activity entry was “able to inhibit”. Besides, the “angiomotin protein levels” value in assay [3] (24 hours) was “strikingly increased”. Moreover, the “AMOT, AMOTL1, AMOTL2 mRNA levels” value in [4] is “did not markedly affect”. Further, in [5] (24 hours), the “TEAD target gene expression” value is “able to inhibit”. In addition, the “proliferation / colony formation” value in [6] is “significantly decreased”.
In the case of `Oc1nc(-c2ccc(C(F)(F)F)cc2)nc2c1CSCC2` [XAV939], the cell cycle profile result was “no detectable cell cycle alteration” in assay [7] (cell lines which were not growth inhibited); “increased G1 and reduced S phase fractions” in assay [7] (tumor lines whose proliferation was inhibited). Further, in assay [2] (H2373 cells, doxycycline-inducible AMOTL2 shRNA, 10 μM XAV939), the “inhibitory effect on TEAD transcriptional activity under AMOTL2 silencing” value was “almost completely rescued”. Moreover, the “angiomotin protein levels” value in assay [3] (24 hours) is reported as “strikingly increased”. Further, the AMOTL2 protein levels entry in assay [3] (H2052 cells, 24 hrs) is given as “increased”. In assay [3] (H2373 as compared to resistant H2052 cells, 12 days), the “AMOTL2 protein levels, time course” value was “stabilized higher, durable levels”. For the same compound, in [3] (Hippo mutant MESO25 and 211H cells, 24 hours), the AMOTL2 levels result is on record as “Increased”. Also, the “durable stabilization of AMOTL2” value in assay [3] (resistant H2052 cells) is recorded as “failed to durably stabilize”. The YAP sub-cellular localization result in [8] (H2373 cells, endogenous YAP) is given as “induced YAP re-localization to the cytoplasm”. The YAP-S127A sub-cellular localization result in assay [8] (MCF10A stably expressing YAP-S127A) is “significant shift of YAPS127A to the cytoplasm”. Moreover, in assay [9], the “acini formation in matrigel” value is listed as “inhibited”. Also, the “AMOT, AMOTL1, AMOTL2 mRNA levels” value in assay [4] is given as “did not markedly affect”. Moreover, the “expression of TEAD target genes (CTGF, CYR61, ANKRD1 mRNA)” value in [5] (H2052 cells, 24 hours) is reported as “only modestly affected”; in [5] (all cell lines tested with the exception of H2052, 24 hours), “markedly decreased”. Besides, the “expression of TEAD target genes” value in [5] (MCF10A cells stably overexpressing YAP-S127A) is “inhibited”. Moreover, in [10], the angiomotin stabilization entry is recorded as “stabilized”. Moreover, the “levels of PTEN” value in assay [11] is given as “increased modestly”. The “inhibitory effect on colony formation under AMOTL2 silencing” value in [6] (H2373 cells, doxycycline-inducible AMOTL2 shRNA, 10 μM XAV939, 14 days) is given as “almost completely rescued”. In addition, the “HRAS-V12-induced agar colony formation” value in [12] is on record as “lacked any effect; also recorded: not inhibited”. For the same compound, the “YAP S127 phosphorylation status” value in [13] is given as “did not show any significant differences”. In [14], the AMOT-YAP protein complex entry was “enrichment”.
In the case of verteporfin, the liver tumor growth entry in assay [15] was “suppressed”. For the same compound, the “YAP-WT- and YAP-S127A-induced anchorage-independent cell growth (soft agar colonies)” value in assay [16] is “completely blocked”. Further, in assay [12], the “HRAS-V12-induced agar colony formation” value was “completely blocked”.
